Earlier results as cited in article PMC8008885 (Journal of Enzyme Inhibition and Medicinal Chemistry, 2021).

Tested on: HD transgenic mice
Details: cited from earlier work

Row | Compound | H3K9 trimethylation | SETDB1 gene expression | behaviour and neuropathological phenotype | neuroprotective effects by suppressing elevated SETDB1 and H3K9me3 level
1 | NCCSSCCN [cystamine] | reduced | down-regulates | improved | –
2 | COC(=O)[C@@H]1c2cc3c(c(O)c2[C@@H](O[C@@H]2O[C@@H](C)[C@H](OC)[C@@](C)(OC)[C@H]2OC)C[C@]1(C)O)C(=O)c1c(O)cc2c(c1C3=O)O[C@@H]1O[C@@]2(C)[C@H](O)[C@@H](N(C)C)[C@@H]1O [nogalamycin] | – | – | – | improved neuroprotective effects
3 | mithramycin | reduced | down-regulates | improved | –
